The source of these data is patent US20230138327A1, “COMPOSITIONS AND METHODS CONTAINING REDUCED NICOTINAMIDE RIBOSIDE FOR PREVENTION AND TREATMENT OF PANCREATIC DISEASES AND CONDITIONS” (SOCIETE DES PRODUITS NESTLE S.A., priority 2020, published 2023).

Some results are limits rather than exact numbers.

The subject of data set [1] is AML12 hepatocytes. The data set is described as follows: Intracellular NAD+ levels in AML12 hepatocytes treated with NRH or NR. In kind it is cell-based. How it is done: Even at such relatively low dose, NRH achieved similar increases in intracellular NAD+ levels to those reached with NR at 50-fold higher concentrations.
NRH actions were also extremely fast (FIG. 3), as significant increases in NAD+ levels were observed within 5 minutes after NRH treatment.

For data set [2], the system named is C2C12 myotubes. In words: NAD+ levels in C2C12 myotubes after NRH treatment. Type of data set: cell-based.
In data set [3] the test system is AML12 cells. In words: Pathway of NRH-induced NAD+ synthesis: intracellular metabolites and pathway inhibitors. Type of data set: cell-based. How it is done:
FIG. 4. NRH leads to NAD+ biosynthesis through an adenosine kinase dependent path. AML12 cells were treated with an adenosine kinase inhibitor (5-IT; […]) for 1 hour prior to NRH treatment at the doses indicated. Then, 1 hour later, acidic extracts were obtained to measure NAD levels. All values in the figure are expressed as mean+/−SEM of 3 independent experiments. * indicates statistical difference at p<0.05 vs. the respective vehicle treated group.
(§1) Levels of NRH and other NAD-related metabolites in biological samples were obtained by using a cold liquid-liquid extraction using a mixture of methanol:water:chloroform in 5:3:5 (v/v), from which the polar phase was recovered for hydrophilic interaction ultra-high performance liquid chromatography mass spectrometry (UHPLC-MS) analysis. The UHPLC consisted of a binary pump, a cooled autosampler, and a column oven (DIONEX Ultimate 3000 UHPLC+ Focused, Thermo Scientific), connected to a triple quadrupole spectrometer (TSQ Vantage, Thermo Scientific) equipped with a heated electrospray ionisation (H-ESI) source. Of each sample, 2 μL were injected into the analytical column (2.1 mm×150 mm, 5 μm pore size, 200 Å HILICON iHILIC®-Fusion(P)), guarded by a pre-column (2.1 mm×20 mm, 200 Å HILICON iHILIC®-Fusion(P) Guard Kit) operating at 35° C. The mobile phase (10 mM ammonium acetate at pH 9, A, and acetonitrile, B) was pumped at 0.25 mL/min flow rate over a linear gradient of decreasing organic solvent (0.5-16 min, 90-25% B), followed by re-equilibration for a total run time of 30 min. The MS operated in positive mode at 3500 V with multiple reaction monitoring (MRM). The software Xcalibur v4.1.31.9 (Thermo Scientific) was used for instrument control, data acquisition and processing. Retention time and mass detection was confirmed by authentic standards.
A path in which NRH would be converted to NMNH, then to NADH and this would be finally oxidized to NAD+.
In order to understand the exact path by which NRH synthesizes NAD+, we initially evaluated whether NRH, could be transported into the cell by equilibrative nucleoside transporters (ENTs).
(§2) The action of NRH was also NAMPT-independent, based on experiments using FK866, a NAMPT inhibitor. If NRH led to NAD+ synthesis via the formation of NMNH, this hypothetical path would require the phosphorylation of NRH into NMNH. Given the essential and rate-limiting role of NRK1 in NR phosphorylation, we wondered whether the ability of NRH to boost NAD+ levels was NRK1 dependent. To answer this question, we evaluated NRH action in primary hepatocytes from either control or NRK1 knockout (NRK1KO) mice. […] Further, they rule out the possibility that NRH-induced NAD+ […] is driven by NRH oxidation into NR.
Considering the molecular structure of NRH, we reasoned that an alternative nucleoside kinase could be responsible for the phosphorylation of NRH. […] The role of AK in NRH-mediated NAD+ synthesis was confirmed using a second, structurally different, AK inhibitor, ABT-702. Metabolomic analyses further confirmed that upon inhibition of AK, the generation of NMNH, NADH and NAD+ was fully blunted, even if NRH was effectively entering the cell.
As a follow-up step, NMNAT enzymes could catalyze the transition from NMNH to NADH. […] Yet, part of the NRH action remained after gallotannin treatment when NRH was used at maximal doses.

The test system of data set [4] is primary hepatocytes from control or NRK1 knockout (NRK1KO) mice. The data set is described as follows: NAD+ levels in primary hepatocytes from control or NRK1 knockout mice. In kind it is cell-based. The conditions noted are these: 1 hour of treatment.
Description: as §2

Data set [5] is described as follows: Stability in water. Type of data set: physicochemical. The conditions noted are these: pH=7, at room temperature. Here is the method:
NR degradation to NAM has been proposed as a limitation for its pharmacological efficacy. To evaluate whether NRH was also susceptible to degradation to NAM, we spiked NRH or NR in isolated mouse plasma. […] We also tested the stability of NRH in other matrixes. […] Finally, we also certified NRH stability in water (pH=7, at room temperature) for 48 h.

The nature of data set [6]: Plasma NRH, NR and NAM in mice after oral administration. Type of data set: in vivo.
Description: as §1
Oral administration of NRH led to very similar results to those observed after IP administration. […] NRH was detectable in plasma 1 h after oral administration. In contrast, NR levels were undetectable at 1 h after NR administration.

Data set [7] in a line: Tissue NRH levels in mice after oral gavage (LC-MS). In kind it is in vivo. The conditions noted are these: oral gavage 250 mg/kg (stable isotope-labelled NRH), 2 hours. Here is the method:
8 week-old C57BI/6NTac mice were orally gavaged with either saline (as vehicle), and an stable isotope-labelled NRH (250 mg/kg). After 2 hours, pancreas NRH levels were evaluated. All results are expressed as mean+/−SEM of n=4 mice per group, as areas under the signal by LC-MS analysis, corrected by total protein amount of tissue.
8 week-old C57BI/6NTac mice were orally gavaged with either saline (as vehicle), and NRH (250 mg/kg). After 2 hours, liver, skeletal muscle and kidney NRH levels were evaluated. All results are expressed as mean+/−SEM of n=4 mice per group, as areas under the signal by LC-MS analysis, corrected by total protein amount of tissue.
Levels of NRH and other NAD-related metabolites in biological samples were obtained by using a cold liquid-liquid extraction using a mixture of methanol:water:chloroform in 5:3:5 (v/v), from which the polar phase was recovered for hydrophilic interaction ultra-high performance liquid chromatography mass spectrometry (UHPLC-MS) analysis. The UHPLC consisted of a binary pump, a cooled autosampler, and a column oven (DIONEX Ultimate 3000 UHPLC+ Focused, Thermo Scientific), connected to a triple quadrupole spectrometer (TSQ Vantage, Thermo Scientific) equipped with a heated electrospray ionisation (H-ESI) source. […]

Data set [8] concerns mice. The data set is described as follows: Pancreas NAD+ levels in mice after intraperitoneal administration. Type of data set: in vivo. The conditions noted are these: I.P. 500 mg/kg, after 1 hour. Here is the method:
8 week-old C57BI/6NTac mice were intraperitoneally administered with either saline (as vehicle) or NRH (500 mg/kg). After 1 hour, pancreas NAD+ was measured using commercial kits. All results are expressed as mean+/−SEM of n=4 mice per group, corrected by weight of tissue.

Consider `NC(=O)C1=CN([C@@H]2O[C@H](CO)[C@@H](O)[C@H]2O)C=CC1` [NRH], for which, in data set [1] (AML12 hepatocytes), the “Ability to increase intracellular NAD+ compared with NR” value was “superior to that of NR” and the “Concentration range of maximal effects on NAD+ synthesis” value was “around the millimolar range”. Also, the “Time after treatment at which significant increases in NAD+ levels were observed” value in data set [1] (AML12 hepatocytes (FIG. 3)) is at most 5 min. For the same compound, the “Fold higher NR concentration needed for similar increase in intracellular NAD+ as NRH at 10 μM” value in data set [1] (AML12 hepatocytes, NRH 10 μM vs NR) was found to be 50 fold. Besides, the “Increase of intracellular NAD+ levels at maximal effect” value in data set [1] (AML12 hepatocytes, around the millimolar range) is “more than 10 fold”. Besides, the “Concentration at which NAD+ levels are significantly increased” value in data set [1] (AML12 hepatocytes, dose-response (FIG. 2)) turned out to be 10 µM. Further, the “NAD+ levels” value in data set [2] is recorded as “highly elevated”. Moreover, the “Intracellular detection of NRH and NMNH” value in data set [3] (5 minutes after treatment) is “could be detected”. Moreover, the “Increase in intracellular NR and NMN” value in data set [3] (after NRH treatment, vs NR treatment) was “greater than that triggered by NR itself”. Also, the “Capacity as extracellular NAD+ precursor under ENT blockage” value in data set [3] (in the presence of S-(4-nitrobenzyl)-6-thioinosine (NBTI)) was “largely lost its capacity”. Further, in data set [3] (metabolomic analyses), the “Generation of NMNH, NADH and NAD+ from NRH upon inhibition of AK” value is reported as “fully blunted”. Besides, the “Dependence of NAD+ increase on NAMPT” value in data set [3] (with FK866, a NAMPT inhibitor) is listed as “NAMPT-independent”. In addition, the “NAD+ levels in NRK1KO derived primary hepatocytes” value in data set [4] is recorded as “not affected by NRK1 deficiency”. Also, in data set [5], the “Stability in water, duration” value is 48 h. For the same compound, the “NRH concentration in plasma” value in data set [6] (mice, after oral gavage) was 11.16 ± 1.74 µM. The “Administered compound in plasma” value in data set [6] (mouse, in vivo, po) was “detectable”. The “NRH levels in pancreas” value in data set [7] is listed as “high levels”. Also, in data set [8], the “NAD+ levels in the pancreas” value was “efficiently increases NAD+ levels”.
